Legend:
Format in all cases: cell-based
[1] = system: RS4;11-BCL-2 D103E cells; assay: Cell proliferation assay (MTS), RS4;11-BCL-2 D103E engineered cells; conditions: Homo sapiens, 72 h, read-out: RS4, 11 BCL2-D103E IC50
Outline: (§1)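 Inhibition of mutant BCL-2 is inferred from reduced proliferation of RS4;11 cells stably overexpressing the mutant. Compounds are tested at 1.5–10000 nM for 120 h (G101V, F104L) or 72 h (D103E, D103Y), with MTS absorbance at 490 nm used to derive IC50.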

[2] = system: RS4;11-BCL-2 F104L cells; assay: Cell proliferation assay (MTS), RS4;11-BCL-2 F104L engineered cells; conditions: Homo sapiens, 120 h, read-out: RS4, 11 BCL2-F104L IC50
Outline: as §1

[3] = system: RS4;11-BCL-2 G101V cells; assay: Cell proliferation assay (MTS), RS4;11-BCL-2 G101V engineered cells; conditions: Homo sapiens, 120 h, read-out: RS4, 11 BCL2-G101V IC50
Outline: as §1

[4] = system: Toledo cells; assay: Cell proliferation assay (MTS), Toledo cells; conditions: Homo sapiens, 72 h
Outline: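 Toledo cells (RPMI-1640, 10% FBS) seeded at 30000 cells/well, rested 4 h, then exposed 72 h at 37 °C, 5% CO2 to compound at nine final concentrations, 1.5–10000 nM. Viability by MTS (2 h), absorbance at 490 nm. IC50 from the concentration-response.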

Row | Compound | IC50 [1] | IC50 [2] | IC50 [3] | IC50 [4]
1 | COc1nc2[nH]cc(F)c2cc1Oc1cc(N2CCC3(CC2)CC(N2CCN(Cc4ccnc(OCCO)c4)C[C@H]2c2ccccc2C(C)C)C3)ccc1C(=O)NS(=O)(=O)c1cnc(NC[C@H]2CC[C@](C)(O)CC2)c([N+](=O)[O-])c1 [Example 64, 2-((3-fluoro-6-methoxy-1H-pyrrolo[2,3-b]pyridin-5-yl)oxy)-N-((6-((((1r,4r)-4-hydroxy-4-methylcyclohexyl)methyl)amino)-5-nitropyridin-3-yl)sulfonyl)-4-(2-((R)-4-((2-(2-hydroxyethoxy)pyridin-4-yl)methyl)-2-(2-isopropylphenyl)piperazin-1-yl)-7-azaspiro[3.5]nonan-7-yl)benzamide] | 1 nM | 3 nM | 1 nM | 
2 | COc1nc2[nH]cc(F)c2cc1Oc1cc(N2CCC3(CC2)CC(N2CCN(Cc4ccc(S(C)(=O)=O)cc4)C[C@H]2c2ccccc2C(C)C)C3)ccc1C(=O)NS(=O)(=O)c1cnc(NC[C@H]2CC[C@](C)(O)CC2)c([N+](=O)[O-])c1 [Example 327, 2-((3-fluoro-6-methoxy-1H-pyrrolo[2,3-b]pyridin-5-yl)oxy)-N-((6-((((1r,4r)-4-hydroxy-4-methylcyclohexyl)methyl)amino)-5-nitropyridin-3-yl)sulfonyl)-4-(2-((R)-2-(2-isopropylphenyl)-4-(4-(methylsulfonyl)benzyl)piperazin-1-yl)-7-azaspiro[3.5]nonan-7-yl)benzamide] | 1 nM | 1 nM |  | 1 nM
3 | COc1nc2[nH]cc(F)c2cc1Oc1cc(N2CCC3(CC2)CC(N2CCN(Cc4ccc5c(c4)OCO5)C[C@H]2c2ccccc2C(C)C)C3)ccc1C(=O)NS(=O)(=O)c1cnc(NC[C@H]2CC[C@](C)(O)CC2)c([N+](=O)[O-])c1 [Example 353, 4-(2-((R)-4-(benzo[d][1,3]dioxol-5-ylmethyl)-2-(2-isopropylphenyl)piperazin-1-yl)-7-azaspiro [3.5]nonan-7-yl)-2-((3-fluoro-6-methoxy-1H-pyrrolo[2,3-b]pyridin-5-yl)oxy)-N-((6-((((1r,4r)-4-hydroxy-4-methylcyclohexyl)methyl)amino)-5-nitropyridin-3-yl)sulfonyl)benzamide] |  | 1 nM | 1 nM | 1 nM
4 | CC(C)c1ccccc1[C@@H]1CN(Cc2ccc3c(c2)OCO3)CCN1C1CC2(CCN(c3ccc(C(=O)NS(=O)(=O)c4cnc(NC[C@H]5CC[C@](C)(O)CC5)c([N+](=O)[O-])c4)c(Oc4cnc5[nH]cc(F)c5c4)c3)CC2)C1 [Example 354, 4-(2-((R)-4-(benzo[d][1,3]dioxol-5-ylmethyl)-2-(2-isopropylphenyl)piperazin-1-yl)-7-azaspiro[3.5]nonan-7-yl)-2-((3-fluoro-1H-pyrrolo[2,3-b]pyridin-5-yl)oxy)-N-((6-((((1r,4r)-4-hydroxy-4-methylcyclohexyl)methyl)amino)-5-nitropyridin-3-yl)sulfonyl)benzamide] |  | 1 nM | 1 nM | 1 nM
5 | COc1nc2[nH]cc(F)c2cc1Oc1cc(N2CCC3(CC2)CC(N2CCN(Cc4ccnc(C)c4)C[C@H]2c2ccccc2C(C)C)C3)ccc1C(=O)NS(=O)(=O)c1cnc(NC[C@H]2CC[C@](C)(O)CC2)c([N+](=O)[O-])c1 [Example 355, 2-((3-fluoro-6-methoxy-1H-pyrrolo[2,3-b]pyridin-5-yl)oxy)-N-((6-((((1r,4r)-4-hydroxy-4-methylcyclohexyl)methyl)amino)-5-nitropyridin-3-yl)sulfonyl)-4-(2-((R)-2-(2-isopropylphenyl)-4-((2-methylpyridin-4-yl)methyl)piperazin-1-yl)-7-azaspiro[3.5]nonan-7-yl)benzamide] |  | 1 nM | 1 nM | 1 nM
6 | Cc1cc(CN2CCN(C3CC4(CCN(c5ccc(C(=O)NS(=O)(=O)c6cnc(NC[C@H]7CC[C@](C)(O)CC7)c([N+](=O)[O-])c6)c(Oc6cnc7[nH]cc(F)c7c6)c5)CC4)C3)[C@H](c3ccccc3C(C)C)C2)ccn1 [Example 356, 2-((3-fluoro-1H-pyrrolo[2,3-b]pyridin-5-yl)oxy)-N-((6-((((1r,4r)-4-hydroxy-4-methylcyclohexyl)methyl)amino)-5-nitropyridin-3-yl)sulfonyl)-4-(2-((R)-2-(2-isopropylphenyl)-4-((2-methylpyridin-4-yl)methyl)piperazin-1-yl)-7-azaspiro[3.5]nonan-7-yl)benzamide] |  | 2 nM | 1 nM | 1 nM
7 | CC(C)c1ccccc1[C@@H]1CN(Cc2ccnc(Cl)c2)CCN1C1CC2(CCN(c3ccc(C(=O)NS(=O)(=O)c4cnc(NC[C@H]5CC[C@](C)(O)CC5)c([N+](=O)[O-])c4)c(Oc4cnc5[nH]cc(F)c5c4)c3)CC2)C1 [Example 358, 4-(2-((R)-4-((2-chloropyridin-4-yl)methyl)-2-(2-isopropylphenyl)piperazin-1-yl)-7-azaspiro[3.5]nonan-7-yl)-2-((3-fluoro-1H-pyrrolo[2,3-b]pyridin-5-yl)oxy)-N-((6-((((1r,4r)-4-hydroxy-4-methylcyclohexyl)methyl)amino)-5-nitropyridin-3-yl)sulfonyl)benzamide] |  | 2 nM | 1 nM | 1 nM

The remaining compounds from weak to strong by IC50 [2], led by results:

Row | IC50 [1] | IC50 [2] | IC50 [3] | Compound | IC50 [4]
8 | 1 nM | 1 nM | 1 nM | COc1cc(CN2CCN(C3CC4(CCN(c5ccc(C(=O)NS(=O)(=O)c6cnc(NC[C@H]7CC[C@](C)(O)CC7)c([N+](=O)[O-])c6)c(Oc6cc7c(F)c[nH]c7nc6OC)c5)CC4)C3)[C@H](c3ccccc3C(C)C)C2)cc(F)n1 [Example 53, 2-((3-fluoro-6-methoxy-1H-pyrrolo[2,3-b]pyridin-5-yl)oxy)-4-(2-((R)-4-((2-fluoro-6-methoxypyridin-4-yl)methyl)-2-(2-isopropylphenyl)piperazin-1-yl)-7-azaspiro[3.5]nonan-7-yl)-N-((6-((((1r,4r)-4-hydroxy-4-methylcyclohexyl)methyl)amino)-5-nitropyridin-3-yl)sulfonyl)benzamide] | 
9 | 1 nM | 1 nM | 1 nM | COc1cc(CN2CCN(C3CC4(CCN(c5ccc(C(=O)NS(=O)(=O)c6cnc(NC[C@H]7CC[C@](C)(O)CC7)c([N+](=O)[O-])c6)c(Oc6cc7c(F)c[nH]c7nc6OC)c5)CC4)C3)[C@H](c3ccccc3C(C)C)C2)cc(Cl)n1 [Example 54, 4-(2-((R)-4-((2-chloro-6-methoxypyridin-4-yl)methyl)-2-(2-isopropylphenyl)piperazin-1-yl)-7-azaspiro [3.5]nonan-7-yl)-2-((3-fluoro-6-methoxy-1H-pyrrolo[2,3-b]pyridin-5-yl)oxy)-N-((6-((((1r,4r)-4-hydroxy-4-methylcyclohexyl)methyl)amino)-5-nitropyridin-3-yl)sulfonyl)benzamide] | 
10 | 1 nM | 1 nM | 1 nM | COc1cc(CN2CCN(C3CC4(CCN(c5ccc(C(=O)NS(=O)(=O)c6cnc(NC[C@H]7CC[C@](C)(O)CC7)c([N+](=O)[O-])c6)c(Oc6cc7c(F)c[nH]c7nc6OC)c5)CC4)C3)[C@H](c3ccccc3C(C)C)C2)cc(OC)n1 [Example 62, 4-(2-((R)-4-((2,6-dimethoxypyridin-4-yl)methyl)-2-(2-isopropylphenyl)piperazin-1-yl)-7-azaspiro[3.5]nonan-7-yl)-2-((3-fluoro-6-methoxy-1H-pyrrolo[2,3-b]pyridin-5-yl)oxy)-N-((6-((((1r,4r)-4-hydroxy-4-methylcyclohexyl)methyl)amino)-5-nitropyridin-3-yl)sulfonyl)benzamide] | 
11 | 1 nM | 1 nM | 1 nM | COc1nc2[nH]cc(F)c2cc1Oc1cc(N2CCC3(CC2)CC(N2CCN(C(C)C)C[C@H]2c2ccccc2C(C)C)C3)ccc1C(=O)NS(=O)(=O)c1cnc(NC[C@H]2CC[C@](C)(O)CC2)c([N+](=O)[O-])c1 [Example 99, 2-((3-fluoro-6-methoxy-1H-pyrrolo[2,3-b]pyridin-5-yl)oxy)-N-((6-((((1r,4r)-4-hydroxy-4-methylcyclohexyl)methyl)amino)-5-nitropyridin-3-yl)sulfonyl)-4-(2-((R)-4-isopropyl-2-(2-isopropylphenyl)piperazin-1-yl)-7-azaspiro[3.5]nonan-7-yl)benzamide] | 
12 | 1 nM | 1 nM |  | COc1nc(CN2CCN(C3CC4(CCN(c5ccc(C(=O)NS(=O)(=O)c6cnc(NC[C@H]7CC[C@](C)(O)CC7)c([N+](=O)[O-])c6)c(Oc6cnc7[nH]cc(F)c7c6)c5)CC4)C3)[C@H](c3ccccc3C(C)C)C2)ccc1C1CC1 [Example 291, 4-(2-((R)-4-((5-cyclopropyl-6-methoxypyridin-2-yl)methyl)-2-(2-isopropylphenyl)piperazin-1-yl)-7-azaspiro[3.5]nonan-7-yl)-2-((3-fluoro-1H-pyrrolo[2,3-b]pyridin-5-yl)oxy)-N-((6-((((1r,4r)-4-hydroxy-4-methylcyclohexyl)methyl)amino)-5-nitropyridin-3-yl)sulfonyl)benzamide] | 1 nM

From patent US20250122191A1, “COMPOUNDS AS BCL-2 INHIBITORS” (Fochon Biosciences, Ltd, priority 2021, published 2025)
